Data published in patent publication US12582638B2, “Pharmaceutical composition for treating cancer, containing mTOR-signaling inhibitor as active ingredient” (KOREA ADVANCED INSTITUTE OF SCIENCE AND TECHNOLOGY, priority 2020, dated 2026).

Key:
Test in all cases: Cell viability, CellTiterGlo, 72 hours
Assay type in all cases: cell-based
PC3 = settings: Homo sapiens, PC-3, PC3 cells, Prostate
Method: (§1) In addition to the colorectal cells, 120 cancer cell lines treated with various concentrations of lomitapide were assayed for viability. To analyze cell viability, the cells were incubated with lomitapide at 37° C. for 72 hours in a 5% or 10% CO2 atmosphere and then equilibrated at room temperature for 1 hour, followed by addition of CellTiterGlo reagent (Promega). One hour later, luminescence was measured to calculate cell viability (%). The 120 cell lines were purchased from ATCC (American Type Culture Collection, Virginia, USA).

HEC-1-B = settings: Homo sapiens, HEC-1-B cells, Endometrium
Method: as §1

H1299 = settings: Homo sapiens, NCI-H1299, H1299 cells, Lung
Method: as §1

HL-60 = settings: Homo sapiens, HL-60 cells, Blood
Method: as §1

OCI-AML5 = settings: Homo sapiens, OCI-AML-5, OCI-AML5 cells, Blood
Method: as §1

NCI-H1581 = settings: Homo sapiens, NCI-H1581 cells, Lung
Method: as §1

RKO = settings: Homo sapiens, RKO cells, Colon
Method: as §1

Jurkat = settings: Homo sapiens, Jurkat cells, Blood
Method: as §1

DV90 = settings: Homo sapiens, DV-90, DV90 cells, Lung
Method: as §1

A498 = settings: Homo sapiens, A498 cells, Kidney
Method: as §1

U-937 = settings: Homo sapiens, U-937 cells, Blood
Method: as §1

Hs 746T = settings: Homo sapiens, Hs746T, Hs 746T cells, Stomach
Method: as §1

SW620 = settings: Homo sapiens, SW-620, SW620 cells, Colon
Method: as §1

EPLC-272H = settings: Homo sapiens, EPLC-272H cells, Lung
Method: as §1

NCI-H2286 = settings: Homo sapiens, NCI-H2286 cells, Lung
Method: as §1

P31/FUJ = settings: Homo sapiens, P31/FUJ cells, Blood
Method: as §1

DU-145 = settings: Homo sapiens, DU-145 cells, Prostate
Method: as §1

U2OS = settings: Homo sapiens, U2OS cells, Bone
Method: as §1

KMS-12-BM = settings: Homo sapiens, KMS-12-BM cells, Blood
Method: as §1

NCI-H1048 = settings: Homo sapiens, NCI-H1048 cells, Lung
Method: as §1

SK-N-SH = settings: Homo sapiens, SK-N-SH cells, Brain
Method: as §1

MKN-1 = settings: Homo sapiens, MKN-1 cells, Stomach
Method: as §1

SJSA-1 = settings: Homo sapiens, SJSA-1 cells, Bone
Method: as §1

RERF-LC-MS = RERF-LC-MS cells, Lung
Method: as §1

A172 = settings: Homo sapiens, A 172, A172 cells, Brain
Method: as §1

Caki-1 = settings: Homo sapiens, Caki-1 cells, Kidney
Method: as §1

U118MG = settings: Homo sapiens, U-118-MG, U118MG cells, Brain
Method: as §1

SK-N-FI = settings: Homo sapiens, SK-N-FI cells, Brain
Method: as §1

NCI-H1573 = settings: Homo sapiens, NCI-H1573 cells, Lung
Method: as §1

HT-29 = settings: Homo sapiens, HT-29 cells, Colon
Method: as §1

SK-ES-1 = settings: Homo sapiens, SK-ES1, SK-ES-1 cells, Bone
Method: as §1

SW480 = settings: Homo sapiens, SW480 cells, Colon
Method: as §1

Colo 205 = settings: Homo sapiens, Colo 205 cells, Colon
Method: as §1

Kato III = settings: Homo sapiens, Kato III cells, Stomach
Method: as §1

J82 = settings: Homo sapiens, J82 cells, Bladder
Method: as §1

MDA MB 435 = settings: Homo sapiens, MDA MB 435 cells, Skin
Method: as §1

A2058 = settings: Homo sapiens, A2058 cells, Skin
Method: as §1

OVCAR-3 = settings: Homo sapiens, OVCAR-3 cells, Ovary
Method: as §1

SNU-216 = SNU-216 cells, Stomach
Method: as §1

BEN = BEN cells, Lung
Method: as §1

O=C(NC1CCN(CCCCC2(C(=O)NCC(F)(F)F)c3ccccc3-c3ccccc32)CC1)c1ccccc1-c1ccc(C(F)(F)F)cc1 [lomitapide, N-(2,2,2-trifluoroethyl)-9-[4-[4-[[[4′-(trifluoromethyl)[1,1′-biphenyl]2-yl]carbonyl]amino]-1-piperidinyl]butyl]-9H-fluoren-9-carboxamide]
IC50 (PC3): 4.3 µM
IC50 (HEC-1-B): 6.9 µM
IC50 (H1299): 4.8 µM
IC50 (HL-60): 3.3 µM
IC50 (OCI-AML5): 2.7 µM
IC50 (NCI-H1581): 3.7 µM
IC50 (RKO): 3.3 µM
IC50 (Jurkat): 3 µM
IC50 (DV90): 5.2 µM
IC50 (A498): 2.9 µM
IC50 (U-937): 2.3 µM
IC50 (Hs 746T): 2.5 µM
IC50 (SW620): 3.6 µM
IC50 (EPLC-272H): 3.1 µM
IC50 (NCI-H2286): 3.4 µM
IC50 (P31/FUJ): 3.1 µM
IC50 (DU-145): 5 µM
IC50 (U2OS): 2.8 µM
IC50 (KMS-12-BM): 3.5 µM
IC50 (NCI-H1048): 5.5 µM
IC50 (SK-N-SH): 3.2 µM
IC50 (MKN-1): 3.7 µM
IC50 (SJSA-1): 3.1 µM
IC50 (RERF-LC-MS): 3.2 µM
IC50 (A172): 1.9 µM
IC50 (Caki-1): 3.6 µM
IC50 (U118MG): 2.5 µM
IC50 (SK-N-FI): 3.4 µM
IC50 (NCI-H1573): 4.7 µM
IC50 (HT-29): 1.6 µM
IC50 (SK-ES-1): 3.5 µM
IC50 (SW480): 2.5 µM
IC50 (Colo 205): 3.4 µM
IC50 (Kato III): 5.4 µM
IC50 (J82): 3.6 µM
IC50 (MDA MB 435): 3 µM
IC50 (A2058): 1.4 µM
IC50 (OVCAR-3): 5.3 µM
IC50 (SNU-216): 3.1 µM
IC50 (BEN): 4.2 µM
